Assay results reported in patent publication US9790169B2, “IDO inhibitors” (BRISTOL-MYERS SQUIBB COMPANY, priority 2015, dated 2017).
pIC50: −log10 of the molar value.

target: human IDO1 (Homo sapiens, UniProt P14902); test: Assessment of human IDO-1 inhibitory activity in HEK cells (human IDO1/HEK293 cells, kynurenine read-out with Ehrlich reagent, absorbance 490 nm); type: cell-based; set-up: expressed in transfected cells; conditions: HEK Human IDO-1 cellular assay
Procedure, shortened: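 Kynurenine output from stably IDO1-transfected HEK293 cells (10,000/well, phenol red-free RPMI, 10% FBS) after 20 h compound exposure at 37 °C. The reaction was stopped with 0.2% TCA and heated 30 min at 50 °C, then the supernatant was mixed with Ehrlich reagent and read at 490 nm. IC50 was set against DMSO and a 500 nM reference standard as 0 and 100% inhibition.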

Chain of human IDO1 (P14902 whole entry): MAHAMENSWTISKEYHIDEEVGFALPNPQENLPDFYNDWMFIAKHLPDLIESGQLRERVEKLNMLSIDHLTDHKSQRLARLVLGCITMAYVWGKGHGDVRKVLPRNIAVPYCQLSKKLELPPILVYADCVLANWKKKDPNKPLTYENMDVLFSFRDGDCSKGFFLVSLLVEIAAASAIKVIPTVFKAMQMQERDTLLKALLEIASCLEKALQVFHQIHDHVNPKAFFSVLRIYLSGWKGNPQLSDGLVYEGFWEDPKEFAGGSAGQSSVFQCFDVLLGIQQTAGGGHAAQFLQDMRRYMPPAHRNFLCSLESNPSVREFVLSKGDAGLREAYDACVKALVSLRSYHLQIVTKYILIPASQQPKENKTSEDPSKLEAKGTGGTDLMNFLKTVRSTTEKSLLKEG

| SMILES | pIC50 |
| --- | --- |
| CCOc1ccc(NC(=O)Nc2cc(C(C)CC(=O)O)ccc2N(CC(C)C)C2CCOCC2)cc1 (single isomer, unassigned) [Example 963, 3-(3-(3-(4-ethoxyphenyl)ureido)-4-(isobutyl(tetrahydro-2H-pyran-4-yl)amino)phenyl)butanoic acid] | < 7.30 |
| CCN(c1ccc(C(C)(C)CC(=O)O)cc1Nc1ccc2c(c1)OC(F)(F)O2)C1CCOCC1 [Example 161, 3-(3-((2,2-difluorobenzo[d][1,3]dioxol-5-yl)amino)-4-(ethyl (tetrahydro-2H-pyran-4-yl)amino)phenyl)-3-methylbutanoic acid] | > 8.30 |
| CCN(c1ccc([C@@H](COC)CC(=O)O)cc1NC(=O)Nc1cc(C)no1)C1CCOCC1 (single isomer, unassigned) [Example 429] | < 7.30 |
| COCC(CC(=O)O)c1ccc(N(CC2CC2)C2CCOCC2)c(Nc2ccc3nc(C)sc3c2)c1 (single isomer, unassigned) [Example 680, 3-(4-((cyclopropylmethyl) (tetrahydro-2H-pyran-4-yl)amino)-3-((2-methylbenzo[d]thiazol-6-yl)amino)phenyl)-4-methoxybutanoic acid] | > 7.30 |
| CCOc1ccc(NC(=O)Nc2cc(C(CC)CC(=O)O)c(F)cc2N(CC(C)C)C2CCCCC2)c(F)c1 (racemic) [Example 1116, (±)-3-(4-(Cyclohexyl(isobutyl)amino)-5-(3-(4-ethoxy-2-fluorophenyl)ureido)-2-fluorophenyl)pentanoic acid] | > 8.30 |
| CCC(CC(=O)O)c1ccc(N2C[C@@H](C)O[C@@H](C)C2)c(Nc2ccc3c(c2)OC(F)(F)O3)c1 (single isomer, unassigned) [Example 758] | < 7.30 |
| COCC(CC(=O)O)c1ccc(N(CC2CC2)C2CCOCC2)c(Nc2ccc(Cl)c(OCC(F)F)c2)c1 (single isomer, unassigned) [Example 684, 3-(3-((4-chloro-3-(2,2-difluoroethoxy)phenyl)amino)-4-((cyclopropylmethyl) (tetrahydro-2H-pyran-4-yl)amino)phenyl)-4-methoxybutanoic acid] | > 7.30 |
| CCN(c1ccc(C(C)CC(=O)O)cc1Nc1cnc(OC)nc1)C1CCOCC1 (single isomer, unassigned) [Example 633, 3-(4-(ethyl(tetrahydro-2H-pyran-4-yl)amino)-3-((2-methoxypyrimidin-5-yl)amino)phenyl)butanoic acid] | > 7.30 |
| CC[C@@H](CC(=O)O)c1ccc(N2CCC[C@H]2C(C)(C)F)c(NC(=O)Nc2ccc(C)cc2)c1 (single isomer, unassigned) [Example 785] | < 7.30 |
| CCC(CC(=O)O)c1ccc(N(CC(C)C)C(C)C)c(Nc2ccc(Cl)cc2)c1 (single isomer, unassigned) [Example 727, 3-(3-((4-Chlorophenyl)amino)-4-(isobutyl(isopropyl)amino)phenyl)pentanoic acid] | > 8.30 |
| CC[C@H](CC(=O)O)c1ccc(N(CC)C2CCCCC2)c(Nc2ccc(Cl)cc2)c1 (single isomer, unassigned) [Example 285] | > 8.30 |
| CCC(CC(=O)O)c1ccc(N2CCOC[C@H]2C(C)C)c(Nc2cnc(OCC3CC3)nc2)c1 (single isomer, unassigned) [Example 905] | < 7.30 |
| COCC(CC(=O)O)c1ccc(N(CC(C)C)C2CCCCC2)c(NC(=O)Nc2ccccc2F)c1 (racemic) [Example 983, (+/−)-3-(4-(Cyclohexyl(isobutyl)amino)-3-(3-(2-fluorophenyl)ureido)phenyl)-4-methoxybutanoic acid] | > 8.30 |
| CC[C@@H](CC(=O)O)c1ccc(N(CC)C2CCOCC2)c(NC(=O)Nc2ccc(OC)cc2F)c1 (single isomer, unassigned) [Example 493] | < 7.30 |
| CCC(CC(=O)O)c1cc(F)c(N(CC(C)C)CC(C)C)c(NC(=O)Cc2ccc(C)cc2F)c1 (single isomer, unassigned) [Example 1094 E1] | > 8.30 |
| CC(CC(=O)O)c1ccc(N2C[C@@H](C)O[C@@H](C)C2)c(Nc2ccc(Cl)cc2)c1 (single isomer, unassigned) [Example 745] | > 7.30 |
| CC[C@@H](CC(=O)O)c1ccc(N(CC)C2CCOCC2)c(Nc2cnc3cnccn23)c1 (single isomer, unassigned) [Example 472] | < 7.30 |
| COCC(CC(=O)O)c1ccc(N(CC(C)C)CC(C)C)c(NC(=O)Nc2cc(C)on2)c1 (racemic) [Example 998, (+/−)-3-(4-(Diisobutylamino)-3-(3-(5-methylisoxazol-3-yl)ureido)phenyl)-4-methoxybutanoic acid] | > 7.30 |
| CCC(CC(=O)O)c1ccc(N(CC)C2CCCOC2)c(NC(=O)Nc2ccc(C)cc2)c1 (single isomer, unassigned) [Example 73 D4, 3-(4-(Ethyl(tetrahydro-2H-pyran-3-yl)amino)-3-(3-(p-tolyl)ureido)phenyl)pentanoic acid] | > 8.30 |

| SMILES | pIC50 |
| --- | --- |
| CCN(c1ccc(C(C)CC(=O)O)cc1Nc1ccc(Cl)cc1)C1CCOCC1 (single isomer, unassigned) [Example 612 E1, 3-(3-((4-Chlorophenyl)amino)-4-(ethyl(tetrahydro-2H-pyran-4-yl)amino)phenyl)butanoic acid] | > 8.30 |
| CCC(CC(=O)O)c1cc(F)c(N(CC(C)C)CC(C)C)c(NC(=O)Nc2ccc(C#N)c(Cl)c2)c1 (racemic) [Example 978, (+/−)-3-(3-(3-(3-chloro-4-cyanophenyl)ureido)-4-(diisobutylamino)-5-fluorophenyl)pentanoic acid] | > 7.30 |
| CC[C@H](CC(=O)O)c1ccc(N2C[C@@H](C)O[C@@H](C)C2)c(Nc2ccc(Cl)cc2)c1 (single isomer, unassigned) [Example 761] | > 7.30 |
| CCOc1ccc(NC(=O)Nc2cc(C(C)CC(=O)O)ccc2N(CC(C)C)C2CCOCC2)cc1 (single isomer, unassigned) [Example 960, 3-(3-(3-(4-ethoxyphenyl)ureido)-4-(isobutyl(tetrahydro-2H-pyran-4-yl)amino)phenyl)butanoic acid] | > 7.30 |
| CCN(c1ccc([C@H](COC)CC(=O)O)cc1NC(=O)Nc1cnc(C)nc1)C1CCOCC1 (single isomer, unassigned) [Example 438] | < 7.30 |
| COCC(CC(=O)O)c1ccc(N(CC(C)C)C2CCOCC2)c(NC(=O)Nc2ccc(C)cc2)c1 (single isomer, unassigned) [Example 1209, 3-(4-(Isobutyl(tetrahydro-2H-pyran-4-yl)amino)-3-(3-(p-tolyl)ureido)phenyl)-4-methoxybutanoic acid] | < 7.30 |
| CCOc1ccc(NC(=O)Nc2cc(C(CC)CC(=O)O)c(F)cc2N(CC(C)C)C2CCCCC2)cc1 (racemic) [Example 952, (+/−)-3-(4-(Cyclohexyl(isobutyl)amino)-5-(3-(4-ethoxyphenyl)ureido)-2-fluorophenyl)pentanoic acid] | > 8.30 |
| CCC(CC(=O)O)c1ccc(N2CCC[C@H]2C(C)(C)F)c(Nc2ccc3c(c2)OC(F)(F)O3)c1 (single isomer, unassigned) [Example 790] | > 7.30 |
| CC[C@H](CC(=O)O)c1ccc(N(CC(C)(C)O)C2CCOCC2)c(Nc2ccc(Cl)cc2)c1 (single isomer, unassigned) [Example 203] | > 8.30 |
| CCC(CC(=O)O)c1ccc(N(CC2CC2)C(C)C)c(Nc2ccc3c(c2)OC(F)(F)O3)c1 (single isomer, unassigned) [Example 715, 3-(4-((cyclopropylmethyl) (isopropyl)amino)-3-((2,2-difluorobenzo[d][1,3]dioxol-5-yl)amino)phenyl) pentanoic acid] | > 7.30 |
| Cc1ccc(NC(=O)Nc2cc(C(C)CC(=O)O)ccc2N(CC(C)C)C2CCOCC2)cc1 (single isomer, unassigned) [Example 958, 3-(4-(Isobutyl(tetrahydro-2H-pyran-4-yl)amino)-3-(3-(p-tolyl)ureido)phenyl)butanoic acid] | > 7.30 |
| COCC(CC(=O)O)c1ccc(N(CC(C)C)C2CCCCC2)c(NC(=O)Cc2ccc(C)cc2)c1 (single isomer, unassigned) [Example 1237, 3-(4-(Cyclohexyl(isobutyl)amino)-3-(2-(p-tolyl)acetamido)phenyl)-4-methoxybutanoic acid] | > 7.30 |
| CC(CC(=O)O)c1ccc(N2CCC[C@H]2C(C)(C)O)c(Nc2ccc(Cl)cc2)c1 (single isomer, unassigned) [Example 799] | < 7.30 |
| CC(C)CN(c1ccc(C(CC(=O)O)C2CC2)cc1NC(=O)Nc1ccc(Cl)cc1F)C1CCOCC1 (single isomer, unassigned) [Example 1199 Enantiomer 1, 3-(3-(3-(4-Chloro-2-fluorophenyl)ureido)-4-(isobutyl(tetrahydro-2H-pyran-4-yl)amino)phenyl)-3-cyclopropylpropanoic acid] | > 8.30 |
| CC[C@@H](CC(=O)O)c1ccc(N(CC)C2CCCCC2)c(Nc2ccc(C#N)cc2)c1 (single isomer, unassigned) [Example 283] | > 8.30 |
| CCOc1ncc(Nc2cc(C(C)CC(=O)O)ccc2N2CCC[C@H]2C(C)(C)O)cn1 (single isomer, unassigned) [Example 800] | < 7.30 |
| Cc1ccc(NC(=O)Nc2cc(C(CC(=O)O)C3CC3)ccc2N(CC(C)C)C2CCOCC2)cc1 (racemic) [Example 1202, (+/−)-3-Cyclopropyl-3-(4-(isobutyl(tetrahydro-2H-pyran-4-yl)amino)-3-(3-(p-tolyl)ureido)phenyl)propanoic acid] | > 8.30 |
| COCC(CC(=O)O)c1cc(F)c(N(CC(C)C)C2CCCCC2)c(NC(=O)Nc2ccc(OC)cc2F)c1 (centres unmarked) [Example 1159, 3-(4-(cyclohexyl(isobutyl)amino)-3-fluoro-5-(3-(2-fluoro-4-methoxyphenyl)ureido)phenyl)-4-methoxybutanoic acid] | > 8.30 |
| CC[C@H](CC(=O)O)c1ccc(N(CC)C2CCOCC2)c(Nc2ccn3nc(C)c(F)c3c2)c1 (single isomer, unassigned) [Example 513] | > 7.30 |
